Source: patent US20050142169A1, “Palatability enhanced composition and method for animal consumption” (priority 2003, published 2005)

Legend:
[1] = system: dogs; assay: two-bowl preference test, Example 2 (Canine r/d); assay type: in vivo, dog; settings: dry wt. of kibble
Experimental: Each of the test flavors (2.0%, dry weight basis) was topically applied to a dry, commercial dog food (Canine r/d from Hill's Pet Nutrition, Inc.) after sequential application of soy bean oil (2.0%, dry weight basis) and choice white grease (0.4%, dry weight basis) to form a test composition. Each test composition was compared against a control composition in a palatability test as described in Example 1. The control compositions were prepared by topically applying the commercial liquid palatant enhancer (2.0% dry weight basis) to the dry, commercial dog food (Canine r/d) after sequential application of soy bean oil (2.0%, dry weight basis) and choice white grease (0.4%, dry weight basis). Palatability was determined by comparing the test composition and the control composition in a standard two-bowl preference test over two days with 20 dogs as described in Example 1.

[2] = system: cats; assay: two-bowl preference test, Example 6 (Feline w/d); assay type: in vivo, cat; settings: dry wt. of kibble
Source text: Finally, a commercial dry palatant enhancer (1.4% dry weight basis) was topically applied to the dry kibbles to complete the test composition.

[3] = Exp. No. 7, second set of experiments, 1 ppm
[4] = Exp. No. 8, second set of experiments, 2 ppm
[5] = Exp. No. 9, second set of experiments, 3 ppm
[6] = Exp. No. 10, second set of experiments, 4 ppm
[7] = Exp. No. 11, second set of experiments, 5 ppm
[8] = Exp. No. 12, second set of experiments, 10 ppm

CC1=C(O)C(=O)C(C)O1 (stereo not drawn) [2,5-dimethyl-4-hydroxy-3(2H)-furanone]
Intake Ratio ([1]; Exp. No. 1, 21.75 ppm): 0.5843
Preference (%) control composition ([1]; Exp. No. 1, 21.75 ppm): 42.9%
Preference (%) test composition ([1]; Exp. No. 1, 21.75 ppm): 50.0%
Status (vs. control) ([1]; Exp. No. 1, 21.75 ppm): Parity
Intake Ratio ([1]; Exp. No. 2, 43.5 ppm): 0.6667
Preference (%) control composition ([1]; Exp. No. 2, 43.5 ppm): 16.7%
Preference (%) test composition ([1]; Exp. No. 2, 43.5 ppm): 77.8%
Status (vs. control) ([1]; Exp. No. 2, 43.5 ppm): Win
Intake Ratio ([1]; Exp. No. 3, 87.1 ppm): 0.5732
Preference (%) control composition ([1]; Exp. No. 3, 87.1 ppm): 29.4%
Preference (%) test composition ([1]; Exp. No. 3, 87.1 ppm): 64.7%
Status (vs. control) ([1]; Exp. No. 3, 87.1 ppm): Parity
Intake Ratio ([1]; Exp. No. 4, 174.0 ppm): 0.5523
Preference (%) control composition ([1]; Exp. No. 4, 174.0 ppm): 31.3%
Preference (%) test composition ([1]; Exp. No. 4, 174.0 ppm): 50.0%
Status (vs. control) ([1]; Exp. No. 4, 174.0 ppm): Parity
Intake Ratio ([1]; Exp. No. 5, 217.5 ppm): 0.5047
Preference (%) control composition ([1]; Exp. No. 5, 217.5 ppm): 66.7%
Preference (%) test composition ([1]; Exp. No. 5, 217.5 ppm): 33.3%
Status (vs. control) ([1]; Exp. No. 5, 217.5 ppm): Parity
Intake Ratio ([1]; Exp. No. 6, 282.8 ppm): 0.4297
Preference (%) control composition ([1]; Exp. No. 6, 282.8 ppm): 47.1%
Preference (%) test composition ([1]; Exp. No. 6, 282.8 ppm): 52.9%
Status (vs. control) ([1]; Exp. No. 6, 282.8 ppm): Parity
Intake Ratio ([2]; Exp. No. 1, 1 ppm): 0.7653
Preference (%) control composition ([2]; Exp. No. 1, 1 ppm): 20.0%
Preference (%) test composition ([2]; Exp. No. 1, 1 ppm): 80.0%
Status (vs. control) ([2]; Exp. No. 1, 1 ppm): Win
Intake Ratio ([2]; Exp. No. 2, 2 ppm): 0.8280
Preference (%) control composition ([2]; Exp. No. 2, 2 ppm): 17.6%
Preference (%) test composition ([2]; Exp. No. 2, 2 ppm): 82.6%
Status (vs. control) ([2]; Exp. No. 2, 2 ppm): Win
Intake Ratio ([2]; Exp. No. 3, 3 ppm): 0.9457
Preference (%) control composition ([2]; Exp. No. 3, 3 ppm): 4.3%
Preference (%) test composition ([2]; Exp. No. 3, 3 ppm): 95.7%
Status (vs. control) ([2]; Exp. No. 3, 3 ppm): Win
Intake Ratio ([2]; Exp. No. 4, 4 ppm): 0.8426
Preference (%) control composition ([2]; Exp. No. 4, 4 ppm): 16.0%
Preference (%) test composition ([2]; Exp. No. 4, 4 ppm): 84.0%
Status (vs. control) ([2]; Exp. No. 4, 4 ppm): Win
Intake Ratio ([2]; Exp. No. 5, 5 ppm): 0.8957
Preference (%) control composition ([2]; Exp. No. 5, 5 ppm): 11.1%
Preference (%) test composition ([2]; Exp. No. 5, 5 ppm): 88.9%
Status (vs. control) ([2]; Exp. No. 5, 5 ppm): Win
Intake Ratio ([2]; Exp. No. 6, 10 ppm): 0.8596
Preference (%) control composition ([2]; Exp. No. 6, 10 ppm): 4.2%
Preference (%) test composition ([2]; Exp. No. 6, 10 ppm): 95.8%
Status (vs. control) ([2]; Exp. No. 6, 10 ppm): Win
Intake Ratio [2, 3]: 0.9077
Preference (%) control composition [2, 3]: 4.2%
Preference (%) test composition [2, 3]: 95.8%
Status (vs. control) [2, 3]: Win
Intake Ratio [2, 4]: 0.7613
Preference (%) control composition [2, 4]: 16.0%
Preference (%) test composition [2, 4]: 84.0%
Status (vs. control) [2, 4]: Win
Intake Ratio [2, 5]: 0.8206
Preference (%) control composition [2, 5]: 13.6%
Preference (%) test composition [2, 5]: 86.4%
Status (vs. control) [2, 5]: Win
Intake Ratio [2, 6]: 0.8957
Preference (%) control composition [2, 6]: 4.2%
Preference (%) test composition [2, 6]: 95.7%
Status (vs. control) [2, 6]: Win
Intake Ratio [2, 7]: 0.8596
Preference (%) control composition [2, 7]: 12.5%
Preference (%) test composition [2, 7]: 87.5%
Status (vs. control) [2, 7]: Win
Intake Ratio [2, 8]: 0.7976
Preference (%) control composition [2, 8]: 15.0%
Preference (%) test composition [2, 8]: 85.0%
Status (vs. control) [2, 8]: Win
